These molecules were tested against T1, hNLRP3 (THP-1, IL-1β) (Homo sapiens, UniProt Q96P20) (assay: IL-1β production in PMA-differentiated THP-1 cells stimulated with gramicidin). Conditions: Table 1, gramicidin 5 μM, IL-1β readout.
T1 construct: THP-1 cells were purchased from the American Type Culture Collection; host or cells: THP-1 cells, PMA-differentiated, stimulated with gramicidin
Format: cell-based
Description: IL-1β Production in PMA-Differentiated THP-1 Cells Stimulated With Gramicidin.
Cell culture-THP-1 cells were purchased from the American Type Culture Collection and sub-cultured according to instructions from the supplier. Prior to experiments, cells were cultured in RPMI 1640 containing 10% heat inactivated FBS, penicillin (100 units/ml) and streptomycin (100 μg/ml), and maintained in log phase prior to experimental setup. Prior to the experiment THP-1 were treated with PMA (Phorbol 12-myristate 13-acetate) (10 μg/ml) for 24 hours. The day of the experiment the media was removed and attaching cells were treated with trypsin for 2 minutes, cells were then collected, washed with PBS (phosphate buffer saline), spin down, resuspended in 2% heat inactivated FBS with RPMI at a concentration of 1×10^6 cells/ml, and 100 μl was plated in a 96 well plate. Cells were incubated with compounds for 1 hours and then stimulated with Gramicidin (5 μM) (Enzo) for 2 hours. Cell free supernatant was collected and the production of IL-1β was evaluated by ELISA. Compounds were dissolved in dimethyl sulfoxide (DMSO) and added to the culture medium to achieve desired concentration (e.g. 100, 30, 10, 3, 1, 0.3 or 0.1 μM). A vehicle only control was run concurrently with each experiment. Final DMSO concentration was 1%.
THP-1 cells were purchased from the American Type Culture Collection and sub-cultured according to instructions from the supplier. Prior to experiments, cells were cultured in complete RPMI 1640 (containing 10% heat inactivated FBS, penicillin (100 units/ml) and streptomycin (100 μg/ml)), and maintained in log phase prior to experimental setup. Prior to the experiment THP-1 were treated with PMA (Phorbol 12-myristate 13-acetate) (20 ng/ml) for 16-18 hours. On the day of the experiment the media was removed and adherent cells were detached with trypsin for 5 minutes. Cells were then harvested, washed with complete RPMI 1640, spun down, resuspended in RPMI 1640 (containing 2% heat inactivated FBS, penicillin (100 units/ml) and streptomycin (100 μg/ml). The cells were plated in a 384-well plate at a density of 50,000 cells/well (final assay volume 50 μl). Compounds were dissolved in dimethyl sulfoxide (DMSO) and added to the culture medium to achieve desired concentration (e.g. 100, 33, 11, 3.7, 1.2, 0.41, 0.14, 0.046, 0.015, 0.0051, 0.0017 μM). Cells were incubated with compounds for 1 hour and then stimulated with gramicidin (5 μM) (Enzo) for 2 hours. Cell free supernatant was collected and the production of IL-1β was evaluated by HTRF (cisbio). A vehicle only control was run concurrently with each experiment. Final DMSO concentration was 0.38%.

T1 sequence (Q96P20 whole entry): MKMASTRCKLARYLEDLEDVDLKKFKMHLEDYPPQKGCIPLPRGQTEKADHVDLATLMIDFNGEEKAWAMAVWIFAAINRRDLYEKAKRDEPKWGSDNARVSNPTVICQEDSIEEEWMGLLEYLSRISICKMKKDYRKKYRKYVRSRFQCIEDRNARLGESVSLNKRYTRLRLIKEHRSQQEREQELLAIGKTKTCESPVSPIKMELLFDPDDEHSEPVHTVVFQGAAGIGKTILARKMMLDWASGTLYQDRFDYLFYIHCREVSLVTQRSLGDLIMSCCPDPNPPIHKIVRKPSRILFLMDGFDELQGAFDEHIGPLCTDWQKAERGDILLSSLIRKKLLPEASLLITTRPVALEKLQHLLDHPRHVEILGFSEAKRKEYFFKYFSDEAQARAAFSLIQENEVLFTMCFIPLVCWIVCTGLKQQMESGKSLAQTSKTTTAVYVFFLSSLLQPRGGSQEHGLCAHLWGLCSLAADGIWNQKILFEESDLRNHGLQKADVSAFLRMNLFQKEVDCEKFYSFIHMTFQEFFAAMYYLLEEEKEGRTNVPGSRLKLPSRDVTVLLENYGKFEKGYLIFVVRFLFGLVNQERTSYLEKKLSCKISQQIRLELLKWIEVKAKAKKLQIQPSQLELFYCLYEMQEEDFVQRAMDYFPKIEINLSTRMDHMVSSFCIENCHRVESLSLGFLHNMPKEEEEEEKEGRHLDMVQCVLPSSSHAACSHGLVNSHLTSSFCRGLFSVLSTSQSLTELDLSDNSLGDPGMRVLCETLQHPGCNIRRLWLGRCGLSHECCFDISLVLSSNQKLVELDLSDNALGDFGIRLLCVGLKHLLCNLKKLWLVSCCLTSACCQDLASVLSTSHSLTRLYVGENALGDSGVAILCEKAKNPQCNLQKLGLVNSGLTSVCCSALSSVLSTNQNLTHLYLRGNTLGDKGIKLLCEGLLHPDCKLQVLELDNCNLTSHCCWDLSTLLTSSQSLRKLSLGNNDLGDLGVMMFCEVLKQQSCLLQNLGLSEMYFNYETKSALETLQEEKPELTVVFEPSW

Compound	IC50 [nM]
CC(C)(O)c1cc(C#N)cc(S(=O)(=O)NC(=O)Nc2c3c(c(Cl)c4c2CCC4)CCC3)c1 [Compound 110, N-(8-chloro-1,2,3,5,6,7-hexahydros-indacen-4-ylcarbamoyl)-3-cyano-5-(2-hydroxypropan-2-yl)benzenesulfonamide]	< 1000
CC(C)(O)c1cccc(S(=O)(=O)NC(=O)Nc2c3c(c(F)c4c2CCC4)CCC3)c1 [Compound 111, N-(8-fluoro-1,2,3,5,6,7-hexahydros-indacen-4-ylcarbamoyl)-3-(2-hydroxypropan-2-yl)benzenesulfonamide]	< 1000
CC(C)(O)c1cc(C#N)cc(S(=O)(=O)NC(=O)Nc2c3c(c(F)c4c2CCC4)CCC3)c1 [Compound 112, 3-cyano-N-(8-fluoro-1,2,3,5,6,7-hexahydros-indacen-4-ylcarbamoyl)-5-(2-hydroxypropan-2-yl)benzenesulfonamide]	< 1000
CC(C)(O)c1cc(Cl)cc(S(=O)(=O)NC(=O)Nc2c3c(c(F)c4c2CCC4)CCC3)c1 [Compound 113, 3-chloro-N-(8-fluoro-1,2,3,5,6,7-hexahydros-indacen-4-ylcarbamoyl)-5-(2-hydroxypropan-2-yl)benzenesulfonamide]	< 1000
CC(C)(O)c1cc(F)cc(S(=O)(=O)NC(=O)Nc2c3c(c(F)c4c2CCC4)CCC3)c1 [Compound 114, 3-fluoro-N-(8-fluoro-1,2,3,5,6,7-hexahydros-indacen-4-ylcarbamoyl)-5-(2-hydroxypropan-2-yl)benzenesulfonamide]	< 1000
CC(C)c1cccc(C(C)C)c1NC(=O)NS(=O)(=O)c1cc(C#N)cc(C(C)(C)O)c1 [Compound 115, 3-cyano-N-(2,6-diisopropylphenylcarbamoyl)-5-(2-hydroxypropan-2-yl)benzenesulfonamide]	< 1000
CC(C)c1cc(C#N)cc(C(C)C)c1NC(=O)NS(=O)(=O)c1cc(C#N)cc(C(C)(C)O)c1 [Compound 116, 3-cyano-N-(4-cyano-2,6-diisopropylphenylcarbamoyl)-5-(2-hydroxypropan-2-yl)benzenesulfonamide]	< 1000
CC(C)c1cc(F)cc(C(C)C)c1NC(=O)NS(=O)(=O)c1cc(C#N)cc(C(C)(C)O)c1 [Compound 117, 3-cyano-N-(4-fluoro-2,6-diisopropylphenylcarbamoyl)-5-(2-hydroxypropan-2-yl)benzenesulfonamide]	< 1000
CC(C)c1cccc(C(C)C)c1NC(=O)NS(=O)(=O)c1cc(Cl)cc(C(C)(C)O)c1 [Compound 120, 3-chloro-N-(2,6-diisopropylphenylcarbamoyl)-5-(2-hydroxypropan-2-yl)benzenesulfonamide]	< 1000
CC(C)c1cc(F)cc(C(C)C)c1NC(=O)NS(=O)(=O)c1cc(Cl)cc(C(C)(C)O)c1 [Compound 123, 3-chloro-N-(4-fluoro-2,6-diisopropylphenylcarbamoyl)-5-(2-hydroxypropan-2-yl)benzenesulfonamide]	< 1000
CC(C)c1cc(C#N)cc(C(C)C)c1NC(=O)NS(=O)(=O)c1cc(F)cc(C(C)(C)O)c1 [Compound 126]	< 1000
CC(C)c1cc(F)cc(C(C)C)c1NC(=O)NS(=O)(=O)c1cc(F)cc(C(C)(C)O)c1 [Compound 127, 3-fluoro-N-(4-fluoro-2,6-diisopropylphenylcarbamoyl)-5-(2-hydroxypropan-2-yl)benzenesulfonamide]	< 1000
CC(C)(O)c1ccc(F)c(S(=O)(=O)NC(=O)Nc2c3c(cc4c2CCC4)CCC3)c1 [Compound 131, 1-[[2-fluoro-5-(2-hydroxypropan-2-yl)benzene]sulfonyl]-3-(1,2,3,5,6,7-hexahydro-s-indacen-4-yl)urea]	< 1000

Same assay, conditions: Table 2, gramicidin 5 μM, IL-1β readout

Compound	IC50 [nM]
CC(C)c1ccc(F)c(C(C)C)c1NC(=O)NS(=O)(=O)c1cc(Cl)cc(C(C)(C)O)c1 [Compound 137, 3-chloro-N-(3-fluoro-2,6-diisopropylphenylcarbamoyl)-5-(2-hydroxypropan-2-yl)benzenesulfonamide]	< 1000
CC(C)c1cc(C#N)cc(C(C)C)c1NC(=O)NS(=O)(=O)c1cc(Cl)cc(C(C)(C)O)c1 [Compound 138, 3-chloro-N-(4-cyano-2,6-diisopropylphenylcarbamoyl)-5-(2-hydroxypropan-2-yl)benzenesulfonamide]	< 1000
CC(C)c1ccc(F)c(C(C)C)c1NC(=O)NS(=O)(=O)c1cccc(C(C)(C)O)c1 [Compound 141, N-(3-fluoro-2,6-diisopropylphenylcarbamoyl)-3-(2-hydroxypropan-2-yl)benzenesulfonamide]	< 1000
CC(C)(O)c1cc(C#N)cc(S(=O)(=O)NC(=O)Nc2c3c(cc4c2CCC4)CCC3)c1 [Compound 142]	< 1000
CC(C)(O)c1cc(C(C)(C)O)cc(S(=O)(=O)NC(=O)Nc2c3c(cc4c2CCC4)CCC3)c1 [Compound 143]	< 1000
CC(C)c1ccc(F)c(C(C)C)c1NC(=O)NS(=O)(=O)c1cc(F)cc(C(C)(C)O)c1 [Compound 144, 3-fluoro-N-(3-fluoro-2,6-diisopropylphenylcarbamoyl)-5-(2-hydroxypropan-2-yl)benzenesulfonamide]	< 1000
CC(C)c1cc(Cl)cc(C(C)C)c1NC(=O)NS(=O)(=O)c1cc(C#N)cc(C(C)(C)O)c1 [Compound 145, N-(4-chloro-2,6-diisopropylphenylcarbamoyl)-3-cyano-5-(2-hydroxypropan-2-yl)benzenesulfonamide]	< 1000
CC(C)(O)c1cc(N2CCOCC2)cc(S(=O)(=O)NC(=O)Nc2c3c(cc4c2CCC4)CCC3)c1 [Compound 146]	< 1000
CC(C)c1cc(C#N)cc(C(C)C)c1NC(=O)NS(=O)(=O)c1cccc(C(C)(C)O)c1 [Compound 147, N-(4-cyano-2,6-diisopropylphenylcarbamoyl)-3-(2-hydroxypropan-2-yl)benzenesulfonamide]	< 1000
CC(C)c1ccc(F)c(C(C)C)c1NC(=O)NS(=O)(=O)c1cc(C#N)cc(C(C)(C)O)c1 [Compound 148, 3-cyano-N-(3-fluoro-2,6-diisopropylphenylcarbamoyl)-5-(2-hydroxypropan-2-yl)benzenesulfonamide]	1000 to 5000
CC(C)(O)c1cc(-c2ccncc2)cc(S(=O)(=O)NC(=O)Nc2c3c(cc4c2CCC4)CCC3)c1 [Compound 149, N-(1,2,3,5,6,7-hexahydro-sindacen-4-ylcarbamoyl)-3-(2-hydroxypropan-2-yl)-5-(pyridin-4-yl)benzenesulfonamide]	1000 to 5000
CC(C)c1cc(Cl)cc(C(C)C)c1NC(=O)NS(=O)(=O)c1cc(F)cc(C(C)(C)O)c1 [Compound 150, N-(4-chloro-2,6-diisopropylphenylcarbamoyl)-3-fluoro-5-(2-hydroxypropan-2-yl)benzenesulfonamide]	1000 to 5000
CC(C)(O)c1cc(-c2ccccc2)cc(S(=O)(=O)NC(=O)Nc2c3c(cc4c2CCC4)CCC3)c1 [Compound 151, N-(1,2,3,5,6,7-hexahydro-sindacen-4-ylcarbamoyl)-5-(2-hydroxypropan-2-yl)biphenyl-3-sulfonamide]	1000 to 5000
CC(C)c1ccc(F)c(C(C)C)c1NC(=O)NS(=O)(=O)c1cc(-c2ccccc2)cc(C(C)(C)O)c1 [Compound 153, N-(3-fluoro-2,6-diisopropylphenylcarbamoyl)-5-(2-hydroxypropan-2-yl)biphenyl-3-sulfonamide]	1000 to 5000
